Assay results published in publication PMC12206033, “Selective inhibition of TRPV3 channel by natural rosmarinic acid and its analogs for alleviation of skin lesions through downregulation of NF-κB pathway” (The Journal of Biological Chemistry, 2025).
Like-named read-outs stand apart in the source and are kept apart here.

Tests used:
Format in all cases: cell-based
hTRPA1 = molecular target: T1, hTRPA1 (Homo sapiens, UniProt O75762); assay: whole-cell patch-clamp of hTRPA1 currents activated by allyl isothiocyanate; conditions: ROSA 50 μM; agonist allyl isothiocyanate 300 μM; read-out: inhibition of TRPA1 currents
T1 construct: expressed in transfected cells; host or cells: HEK293T
T1 sequence (O75762 whole entry): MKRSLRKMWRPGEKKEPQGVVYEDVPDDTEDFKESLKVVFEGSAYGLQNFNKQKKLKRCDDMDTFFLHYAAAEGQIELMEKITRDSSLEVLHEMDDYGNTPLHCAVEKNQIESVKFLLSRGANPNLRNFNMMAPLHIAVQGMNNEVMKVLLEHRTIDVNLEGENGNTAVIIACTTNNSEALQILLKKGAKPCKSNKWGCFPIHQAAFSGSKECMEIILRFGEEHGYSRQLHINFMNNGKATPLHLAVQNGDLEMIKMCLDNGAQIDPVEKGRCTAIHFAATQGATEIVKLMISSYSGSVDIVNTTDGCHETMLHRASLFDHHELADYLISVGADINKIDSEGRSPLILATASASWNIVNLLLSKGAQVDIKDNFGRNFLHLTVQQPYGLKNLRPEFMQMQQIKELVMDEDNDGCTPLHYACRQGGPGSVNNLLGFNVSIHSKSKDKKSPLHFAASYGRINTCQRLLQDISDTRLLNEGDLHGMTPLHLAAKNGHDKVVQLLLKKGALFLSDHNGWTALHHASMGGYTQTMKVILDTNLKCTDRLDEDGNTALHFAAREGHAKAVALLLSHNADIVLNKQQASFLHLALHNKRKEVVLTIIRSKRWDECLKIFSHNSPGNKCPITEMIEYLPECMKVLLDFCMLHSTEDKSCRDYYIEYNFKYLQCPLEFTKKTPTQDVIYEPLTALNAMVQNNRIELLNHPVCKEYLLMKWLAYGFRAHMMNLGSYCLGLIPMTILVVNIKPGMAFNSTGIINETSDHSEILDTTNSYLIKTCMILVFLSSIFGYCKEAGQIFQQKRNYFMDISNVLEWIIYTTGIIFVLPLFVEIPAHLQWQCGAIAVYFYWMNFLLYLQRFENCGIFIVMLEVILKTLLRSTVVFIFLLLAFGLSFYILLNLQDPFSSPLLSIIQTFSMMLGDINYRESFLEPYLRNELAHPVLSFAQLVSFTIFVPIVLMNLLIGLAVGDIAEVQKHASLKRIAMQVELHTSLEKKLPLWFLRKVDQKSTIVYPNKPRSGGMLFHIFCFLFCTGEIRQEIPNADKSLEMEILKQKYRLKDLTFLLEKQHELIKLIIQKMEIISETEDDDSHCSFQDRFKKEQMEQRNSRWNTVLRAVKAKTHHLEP
Experimental: (§1) HEK293T cell line was obtained from the Cell Resource Center, Peking Union Medical College. HEK293T cells were maintained in Dulbecco’s modified Eagle’s medium (DMEM, Gibco) supplemented with 10% fetal bovine serum at 37 °C with 5% CO2. […] The next day, determine the plasmid transfection status by observing green fluorescence based on expression of enhanced GFP as an indicator. […] When conducting experiments on HEK293T cells transfected with G573S point mutant TRPV3 plasmid, we replaced culture medium with or without compounds after 4 h of transfection and then observed green fluorescence of HEK293T cell after 10 h. As for the relative fluorescence intensity, we convert the image to 8 bit grayscale using ImageJ (Https://imagej.net/software/fiji/downloads) and set an appropriate threshold value to reduce background noise and enhance the image contrast.
(§2) All patch-clamp recordings were conducted 16 to 24 h after transfection using an EPC10 amplifier powered by PatchMaster software (HEKA) (https://www.heka.com/downloads/downloads_main.html#down_patchmaster) at room temperature. […] Currents were recorded at a potential ramp from −100 mV to +100 mV for 1000 ms with 1000-ms intervals (for whole-cell recordings) or a persistent potential of −60 mV (inside-out patch recordings). […]

hTRPV3 = molecular target: T2, hTRPV3 (Homo sapiens, UniProt Q8NET8); assay: whole-cell patch-clamp of hTRPV3 currents in HEK293T cells activated by 2-APB; conditions: for inhibition at 50 µM: agonist 2-APB 50 μM
T2 construct: expressed in transfected cells; host or cells: HEK293T
T2 sequence (Q8NET8 1-790): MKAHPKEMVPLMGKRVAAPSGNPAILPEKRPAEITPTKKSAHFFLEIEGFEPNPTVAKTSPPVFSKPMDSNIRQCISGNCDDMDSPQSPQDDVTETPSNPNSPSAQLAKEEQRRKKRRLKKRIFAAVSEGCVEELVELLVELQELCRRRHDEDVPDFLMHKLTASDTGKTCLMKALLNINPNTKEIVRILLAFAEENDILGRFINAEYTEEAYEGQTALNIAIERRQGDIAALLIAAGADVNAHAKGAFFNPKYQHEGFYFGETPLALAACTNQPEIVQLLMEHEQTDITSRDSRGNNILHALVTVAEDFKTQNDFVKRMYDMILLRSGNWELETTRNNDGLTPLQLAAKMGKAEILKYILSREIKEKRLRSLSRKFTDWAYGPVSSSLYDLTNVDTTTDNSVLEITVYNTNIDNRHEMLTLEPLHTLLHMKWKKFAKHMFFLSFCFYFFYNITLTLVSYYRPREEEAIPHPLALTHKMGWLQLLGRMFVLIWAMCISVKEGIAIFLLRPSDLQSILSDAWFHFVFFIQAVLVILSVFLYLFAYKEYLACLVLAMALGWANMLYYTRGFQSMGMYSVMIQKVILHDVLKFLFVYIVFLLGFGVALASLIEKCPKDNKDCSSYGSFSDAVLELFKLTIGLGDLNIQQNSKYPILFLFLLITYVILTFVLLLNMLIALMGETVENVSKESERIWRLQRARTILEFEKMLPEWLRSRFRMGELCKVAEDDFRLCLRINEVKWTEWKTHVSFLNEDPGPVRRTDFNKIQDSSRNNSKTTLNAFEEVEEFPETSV
Experimental: HEK293T cell line was obtained from the Cell Resource Center, Peking Union Medical College. HEK293T cells were maintained in Dulbecco’s modified Eagle’s medium (DMEM, Gibco) supplemented with 10% fetal bovine serum at 37 °C with 5% CO2. HEK293T cells were seeded onto glass coverslips 1 day in advance and transiently transfected with […] complementary deoxyribonucleic acids of human TRPV3 (hTRPV3, accession number NM_145068.4), hTRPV1 (accession number NM_080704.3), mTRPV2 (accession number NM_011706.2), hTRPV4 (accession number NM_021625.5), hTRPA1 (accession number NM_007332.3), and hTRPM8 (accession number NM_024080.5) through Lipofectamine 2000 (Invitrogen) following the manufacture’s protocol. The next day, determine the plasmid transfection status by observing green fluorescence based on expression of enhanced GFP as an indicator. All WT or mutant hTRPV3 complementary deoxyribonucleic acid plasmids were confirmed by DNA sequencing. When conducting experiments on HEK293T cells transfected with G573S point mutant TRPV3 plasmid, we replaced culture medium with or without compounds after 4 h of transfection and then observed green fluorescence of HEK293T cell after 10 h. As for the relative fluorescence intensity, we convert the image to 8 bit grayscale using ImageJ (Https://imagej.net/software/fiji/downloads) and set an appropriate threshold value to reduce background noise and enhance the image contrast.
All patch-clamp recordings were conducted 16 to 24 h after transfection using an EPC10 amplifier powered by PatchMaster software (HEKA) (https://www.heka.com/downloads/downloads_main.html#down_patchmaster) at room temperature. The borosilicate glass pipettes were pulled using a DMZ universal electrode puller (Zeitz-Instruments GmbH) to achieve the resistances of three to 5 MΩ (for whole-cell recordings) or five to 9 MΩ (for inside-out patch recordings). Currents were recorded at a potential ramp from −100 mV to +100 mV for 1000 ms with 1000-ms intervals (for whole-cell recordings) or a persistent potential of −60 mV (inside-out patch recordings). Both pipette solution and bath solution contained (in mM): 130 NaCl, 3 Hepes, and 0.2 EDTA (pH = 7.2–7.4). All recording data were analyzed using Igor Pro (Wave-metrics) (https://www.wavemetrics.com/order/order_igordownloads.htm) and Origin 8.6 (Origin Lab) (https://www.originlab.com/doc/zh/Quick-Help/Download-Installer).

mTRPV2 = molecular target: T3, mTRPV2 (Mus musculus, UniProt Q9WTR1); assay: whole-cell patch-clamp of mTRPV2 currents activated by 2-APB; conditions: ROSA 50 μM; agonist 2-APB 2 mM; read-out: inhibition of TRPV2 currents
T3 construct: expressed in transfected cells; host or cells: HEK293T
T3 sequence (Q9WTR1 1-756): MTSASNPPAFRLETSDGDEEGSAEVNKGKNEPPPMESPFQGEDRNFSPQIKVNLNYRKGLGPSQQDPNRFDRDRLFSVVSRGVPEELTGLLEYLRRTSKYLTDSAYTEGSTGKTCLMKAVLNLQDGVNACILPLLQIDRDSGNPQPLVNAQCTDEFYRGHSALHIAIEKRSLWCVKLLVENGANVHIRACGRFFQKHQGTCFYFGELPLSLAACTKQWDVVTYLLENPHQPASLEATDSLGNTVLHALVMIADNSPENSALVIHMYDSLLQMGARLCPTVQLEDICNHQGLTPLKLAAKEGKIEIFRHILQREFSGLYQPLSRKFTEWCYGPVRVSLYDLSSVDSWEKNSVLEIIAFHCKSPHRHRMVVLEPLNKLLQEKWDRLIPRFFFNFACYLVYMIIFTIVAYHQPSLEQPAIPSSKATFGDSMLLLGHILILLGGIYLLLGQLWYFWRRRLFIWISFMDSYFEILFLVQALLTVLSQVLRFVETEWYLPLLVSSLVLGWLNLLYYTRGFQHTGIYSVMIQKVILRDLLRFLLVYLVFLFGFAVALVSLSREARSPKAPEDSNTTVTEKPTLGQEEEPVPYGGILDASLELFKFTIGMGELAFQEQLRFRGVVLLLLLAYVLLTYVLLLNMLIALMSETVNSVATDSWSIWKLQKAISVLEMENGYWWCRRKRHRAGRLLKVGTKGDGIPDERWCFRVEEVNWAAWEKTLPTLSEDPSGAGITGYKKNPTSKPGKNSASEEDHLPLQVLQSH
Experimental: as §1, §2

hTRPV1 = molecular target: T4, hTRPV1 (Homo sapiens, UniProt Q8NER1); assay: whole-cell patch-clamp of hTRPV1 currents activated by capsaicin; conditions: ROSA 50 μM; agonist capsaicin 1 μM; read-out: inhibition of TRPV1 currents
T4 construct: expressed in transfected cells; host or cells: HEK293T
T4 sequence (Q8NER1 whole entry): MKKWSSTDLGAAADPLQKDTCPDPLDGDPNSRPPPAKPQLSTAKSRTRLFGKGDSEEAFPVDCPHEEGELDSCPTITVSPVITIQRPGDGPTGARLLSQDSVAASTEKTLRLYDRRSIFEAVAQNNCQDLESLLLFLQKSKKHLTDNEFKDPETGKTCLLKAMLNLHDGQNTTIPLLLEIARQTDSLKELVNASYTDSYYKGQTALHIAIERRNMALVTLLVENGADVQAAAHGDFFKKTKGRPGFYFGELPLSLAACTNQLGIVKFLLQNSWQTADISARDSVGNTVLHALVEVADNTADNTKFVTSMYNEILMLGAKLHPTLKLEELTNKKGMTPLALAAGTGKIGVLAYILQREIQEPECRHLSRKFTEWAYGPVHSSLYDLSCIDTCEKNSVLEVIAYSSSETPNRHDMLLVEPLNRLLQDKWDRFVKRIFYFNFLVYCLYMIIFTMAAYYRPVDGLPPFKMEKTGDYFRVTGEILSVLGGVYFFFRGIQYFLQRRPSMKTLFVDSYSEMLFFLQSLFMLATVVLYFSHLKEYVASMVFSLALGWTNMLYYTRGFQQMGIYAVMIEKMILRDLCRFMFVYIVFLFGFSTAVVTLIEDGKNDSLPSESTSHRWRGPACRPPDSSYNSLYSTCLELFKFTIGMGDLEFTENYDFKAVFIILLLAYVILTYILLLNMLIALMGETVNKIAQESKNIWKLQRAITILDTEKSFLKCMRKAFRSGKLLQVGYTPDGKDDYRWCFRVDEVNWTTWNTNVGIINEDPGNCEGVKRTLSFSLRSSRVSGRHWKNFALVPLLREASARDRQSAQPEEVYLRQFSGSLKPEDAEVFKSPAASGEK
Experimental: as §1, §2

Q: Which inhibition at 50 µM (hTRPA1) does the source give for `O=C(/C=C/c1ccc(O)c(O)c1)O[C@H](Cc1ccc(O)c(O)c1)C(=O)O` [ROSA, rosmarinic acid] here?
A: 4.5 ± 3.6%

Q: What about the IC50 (hTRPV3) of the same compound?
A: 12.4 ± 4.2 µM

Q: What about the inhibition at 50 µM (hTRPV3; HEK-293T, ROSA 50 μM, Fig. 2G, read-out: inhibition of TRPV3 currents) of the same compound?
A: ~74.3%

Q: What about the inhibition at 100 µM (hTRPV3; HEK-293T, ROSA 100 μM, 2-APB, WT, read-out: inhibition of macroscopic WT hTRPV3 currents) of the same compound?
A: 87%

Q: What about the inhibition at 50 µM (hTRPV3; HEK-293T, compound 50 μM, Fig. 3I, n = 4-5, read-out: inhibition of hTRPV3 currents) of the same compound?
A: ~75.3%

Q: And the inhibition at 50 µM (mTRPV2)?
A: 21 ± 6.1%

Q: And the inhibition at 50 µM (hTRPV1)?
A: 1.8 ± 11.7%
